In patent US10842785B2, “PIM kinase inhibitors in combination with RNA splicing modulators/inhibitors for treatment of cancers” (UNIVERSITY OF MARYLAND, BALTIMORE COUNTY, priority 2016, dated 2020):
Entries after “also recorded” stand apart in the source; their conditions may differ.

How the values were obtained:
Assay type in all cases: cell-based
MOLM16 cells = assay: MTT assay (number of live cells), MOLM16 cells, single inhibitors and combination, Compusyn CI; conditions: 48 hours
Protocol: (§1) General experimental procedure: 10,000 (MOLM16) or 20,000 (EOL1) cells were seeded per well in 96-well plates. After culturing overnight, AZD1208 and/or Pladienolide B/SRPIN340 were added to wells in quadruplicates at 5 different concentrations. Different ratios between AZD1208 and Pladienolide B were tried in MOLM16 and EOL1 cells. At 48 hours the MTT metabolism indicative of number of live cells was measured by MTT assay (Promega, Cat: G4000). The resulting values were used to evaluate the Fa (fraction affected) values, which were plugged into the Compusyn software to calculate the combination indices (CI values) at ED50, ED75, ED90 and ED95 (ED—Effective dose of combination).
These values of drug dose and effect (fraction of cells affected by the treatment—FA values) were input into the Compusyn software to estimate the interaction between the two drugs.

EOL1 cells = assay: MTT assay (number of live cells), EOL1 cells, single inhibitors and combination, Compusyn CI; conditions: for Effect (fraction of cells affected, FA): 48 hours
Protocol: as §1
To further confirm the finding in MOLM16 cells, it was tested whether the combination of AZD1208 and Pladienolide B is synergistic in another AML cell line—EOL1. Different ratios between AZD1208 and Pladienolide B were tested to identify the ideal ratio that provides maximum synergy.

MCL1 splice variants = assay: Taqman qRT-PCR for MCL1 splice variants in MOLM16 cells; conditions: MOLM16, 20 μM, 24 hours
Excerpt: Control=DMSO treated. […] Arrow indicate bands that change after AZD1208 treatment.
A few targets from the microarray data were chosen, that being, ones that were affected by PIM kinase inhibition. The procedure was manual curation of data, followed by reference seq analysis of splice variants to determine avalibilty of sequence information. Initially, changes in splice variants of a known apoptotic regulator, MCL1 were validated. The smaller isoform of MCL1 is pro-apototic, while the longer isoform has anti-apototic functions.

[1] = test system: SR protein phosphorylation; assay: Western blot using phospho-SR protein antibody; conditions: MOLM16 and EOL1 cells, versus DMSO treated controls
Protocol: MOLM16 and EOL1 cells were treated with AZD1208 or SRPIN340 for indicated concentration and time. Cells lysates from treated cells were used for western blot analysis.
Phosphorylation of splicing factors is known to play a role in regulation of splicing. Phosphorylation of splicing factors called serine arginine rich proteins (SR proteins) is known to regulate their function and localization. Serine arginine rich protein kinases (SRPK1 and SRPK2) phosphorylate these proteins and inhibition of SRPK activity using the small molecule modulator SRPIN340 leads to reduction in phosphorylation. The level of SR protein phosphorylation can be visualized using phospho-SR protein antibody. It was investigated to determine if PIM kinases regulate SRPK activity to indirectly lead to changes in splicing. […] Thus, it was concluded that the SRPK activity was not affected by PIM kinase inhibition.

CCC(O)C(C)C1OC1CC(C)/C=C/C=C(\C)C1OC(=O)CC(O)CCC(C)(O)C(OC(C)=O)/C=C/C1C (stereo not drawn) [Pladienolide B, pladienolide B]
Effect (fraction of cells affected, FA) (MOLM16 cells; MOLM16, Trial 1, 0.002 μM): 0.517
Effect (fraction of cells affected, FA) (MOLM16 cells; MOLM16, Trial 1, 0.004 μM): 0.599
Effect (fraction of cells affected, FA) (MOLM16 cells; MOLM16, Trial 1, 0.006 μM): 0.711
Effect (fraction of cells affected, FA) (MOLM16 cells; MOLM16, Trial 1, 0.008 μM): 0.726
Effect (fraction of cells affected, FA) (MOLM16 cells; MOLM16, Trial 1, 0.01 μM): 0.757
Effect (fraction of cells affected, FA) (MOLM16 cells; MOLM16, Trial 2, 0.002 μM): 0.487
Effect (fraction of cells affected, FA) (MOLM16 cells; MOLM16, Trial 2, 0.004 μM): 0.676
Effect (fraction of cells affected, FA) (MOLM16 cells; MOLM16, Trial 2, 0.006 μM): 0.752
Effect (fraction of cells affected, FA) (MOLM16 cells; MOLM16, Trial 2, 0.008 μM): 0.821
Effect (fraction of cells affected, FA) (MOLM16 cells; MOLM16, Trial 2, 0.01 μM): 0.862
Effect (fraction of cells affected, FA) (MOLM16 cells; MOLM16, Trial 3, 0.002 μM): 0.393
Effect (fraction of cells affected, FA) (MOLM16 cells; MOLM16, Trial 3, 0.004 μM): 0.607
Effect (fraction of cells affected, FA) (MOLM16 cells; MOLM16, Trial 3, 0.006 μM): 0.696
Effect (fraction of cells affected, FA) (MOLM16 cells; MOLM16, Trial 3, 0.008 μM): 0.749
Effect (fraction of cells affected, FA) (MOLM16 cells; MOLM16, Trial 3, 0.01 μM): 0.814
relative sensitivity of the cells to the two drugs (EOL1 cells; EOL1, Trial 1): more sensitive to Pladienolide B than AZD1208
Effect (fraction of cells affected, FA) (EOL1 cells; EOL1, Trial 1, 0.001 μM): 0.315
Effect (fraction of cells affected, FA) (EOL1 cells; EOL1, Trial 1, 0.002 μM): 0.633
Effect (fraction of cells affected, FA) (EOL1 cells; EOL1, Trial 1, 0.003 μM): 0.890
Effect (fraction of cells affected, FA) (EOL1 cells; EOL1, Trial 1, 0.004 μM): 0.957
Effect (fraction of cells affected, FA) (EOL1 cells; EOL1, Trial 1, 0.005 μM): 0.982
Effect (fraction of cells affected, FA) (EOL1 cells; EOL1, Trial 2, 0.0005 μM): 0.060
Effect (fraction of cells affected, FA) (EOL1 cells; EOL1, Trial 2, 0.001 μM): 0.351
Effect (fraction of cells affected, FA) (EOL1 cells; EOL1, Trial 2, 0.0015 μM): 0.528
Effect (fraction of cells affected, FA) (EOL1 cells; EOL1, Trial 2, 0.002 μM): 0.706
Effect (fraction of cells affected, FA) (EOL1 cells; EOL1, Trial 2, 0.0025 μM): 0.820
Effect (fraction of cells affected, FA) (EOL1 cells; EOL1, Trial 3, 0.0005 μM): 0.095
Effect (fraction of cells affected, FA) (EOL1 cells; EOL1, Trial 3, 0.001 μM): 0.360
Effect (fraction of cells affected, FA) (EOL1 cells; EOL1, Trial 3, 0.0015 μM): 0.542
Effect (fraction of cells affected, FA) (EOL1 cells; EOL1, Trial 3, 0.002 μM): 0.667
Effect (fraction of cells affected, FA) (EOL1 cells; EOL1, Trial 3, 0.0025 μM): 0.814

O=C(Nc1cc(C(F)(F)F)ccc1N1CCCCC1)c1ccncc1 [SRPIN340, N-[2-(1-Piperidinyl)-5-(trifluoromethyl)phenyl]-4-pyridinecarboxamide]
Effect (fraction of cells affected, FA) (MOLM16 cells; MOLM16, SRPIN340 testing Trial 1, 5 μM): 0.004
Effect (fraction of cells affected, FA) (MOLM16 cells; MOLM16, SRPIN340 testing Trial 1, 10 μM): 0.014
Effect (fraction of cells affected, FA) (MOLM16 cells; MOLM16, SRPIN340 testing Trial 1, 20 μM): 0.385
changes in MCL1 splicing (MCL1 splice variants): Changes in MCL1 splicing were not observed
SR protein phosphorylation [1]: reduction in phosphorylation signal; also recorded: phosphorylation of SR proteins changes
